Results on 24 molecules are retold here after ChEMBL document CHEMBL1129190, “Solid-phase parallel synthesis applied to lead optimization: Discovery of potent analogues of the GPIIb/IIIa antagonist RWJ-50042” (Bioorg Med Chem Lett, 1996).

Some results are limits rather than exact numbers.

For this test, the target named is Integrin alpha-IIb/beta-3 (Homo sapiens, UniProt P05106+P08514). Nature of the test: In vitro inhibition of biotinylated fibrinogen binding to immobilized integrin alpha IIb beta3. Type of test: protein-complex assay.
Integrin alpha-IIb/beta-3, sequence (P05106 27-788 limits assumed): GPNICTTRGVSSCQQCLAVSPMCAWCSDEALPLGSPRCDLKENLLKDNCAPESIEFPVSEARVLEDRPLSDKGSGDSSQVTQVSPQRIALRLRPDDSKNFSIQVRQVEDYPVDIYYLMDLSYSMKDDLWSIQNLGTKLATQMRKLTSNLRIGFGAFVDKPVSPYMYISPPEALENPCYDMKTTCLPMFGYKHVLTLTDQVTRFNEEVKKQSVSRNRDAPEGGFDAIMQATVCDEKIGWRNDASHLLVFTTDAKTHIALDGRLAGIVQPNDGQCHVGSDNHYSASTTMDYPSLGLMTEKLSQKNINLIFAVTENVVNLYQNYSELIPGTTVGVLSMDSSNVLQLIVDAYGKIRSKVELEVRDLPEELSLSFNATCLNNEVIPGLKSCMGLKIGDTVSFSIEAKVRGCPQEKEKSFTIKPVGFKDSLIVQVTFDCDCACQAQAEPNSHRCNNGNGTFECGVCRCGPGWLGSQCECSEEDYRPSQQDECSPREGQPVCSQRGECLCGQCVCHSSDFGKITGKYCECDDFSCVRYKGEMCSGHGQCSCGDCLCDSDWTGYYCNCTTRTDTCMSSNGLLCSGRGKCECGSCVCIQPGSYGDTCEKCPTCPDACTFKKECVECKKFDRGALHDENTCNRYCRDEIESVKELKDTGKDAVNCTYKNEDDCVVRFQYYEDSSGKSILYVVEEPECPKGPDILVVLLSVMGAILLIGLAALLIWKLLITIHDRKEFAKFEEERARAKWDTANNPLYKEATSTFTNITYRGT
Integrin alpha-IIb/beta-3, sequence (P08514 32-887 limits assumed): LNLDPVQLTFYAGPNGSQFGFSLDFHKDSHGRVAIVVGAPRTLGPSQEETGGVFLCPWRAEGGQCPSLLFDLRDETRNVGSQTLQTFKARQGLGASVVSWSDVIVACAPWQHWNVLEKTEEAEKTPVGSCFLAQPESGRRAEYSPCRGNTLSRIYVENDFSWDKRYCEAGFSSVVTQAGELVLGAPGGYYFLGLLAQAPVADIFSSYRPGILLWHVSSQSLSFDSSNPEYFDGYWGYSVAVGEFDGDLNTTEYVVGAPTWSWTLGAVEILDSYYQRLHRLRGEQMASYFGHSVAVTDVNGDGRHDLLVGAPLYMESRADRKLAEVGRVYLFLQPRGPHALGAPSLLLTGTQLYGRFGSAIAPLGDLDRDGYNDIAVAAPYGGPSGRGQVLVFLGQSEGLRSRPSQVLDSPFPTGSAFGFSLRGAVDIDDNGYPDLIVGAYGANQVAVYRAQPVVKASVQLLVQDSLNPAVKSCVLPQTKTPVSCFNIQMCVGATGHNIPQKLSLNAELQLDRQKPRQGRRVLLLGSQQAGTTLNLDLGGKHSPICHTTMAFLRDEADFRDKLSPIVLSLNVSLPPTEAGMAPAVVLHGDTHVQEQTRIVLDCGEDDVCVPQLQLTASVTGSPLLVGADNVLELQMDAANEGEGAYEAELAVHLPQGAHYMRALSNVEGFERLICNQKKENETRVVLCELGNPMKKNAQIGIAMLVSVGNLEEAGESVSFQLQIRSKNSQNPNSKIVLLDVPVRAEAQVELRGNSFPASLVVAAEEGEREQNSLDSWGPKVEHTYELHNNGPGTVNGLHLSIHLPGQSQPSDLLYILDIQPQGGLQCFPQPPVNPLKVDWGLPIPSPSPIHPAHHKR
Integrin alpha-IIb/beta-3, sequence (P08514 891-1039 limits assumed): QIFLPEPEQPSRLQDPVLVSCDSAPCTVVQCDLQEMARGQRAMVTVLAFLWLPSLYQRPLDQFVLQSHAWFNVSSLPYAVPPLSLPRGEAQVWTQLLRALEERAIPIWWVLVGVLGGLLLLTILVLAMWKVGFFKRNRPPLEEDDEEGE
Turning to `O=C(O)CCNC(=O)C1CCCN(C(=O)CCC2CCNCC2)C1` (centres undefined), the half-inhibitory concentration (IC50) (commonly the concentration at which inhibition is half-maximal) was determined as 6 nM.
Molecule `O=C(O)CCNC(=O)C1CCN(C(=O)CCC2CCNCC2)CC1` displayed an IC50 greater than 100 nM.
Under `O=C(O)C[C@@H](C#Cc1ccccc1)NC(=O)[C@@H]1CCCN(C(=O)CCC2CCNCC2)C1` stands 3 nM.
Molecule `COC(=O)C(CC(=O)O)NC(=O)C1CCCN(C(=O)CCC2CCNCC2)C1` (centres undefined) came in with a half-inhibitory concentration (IC50) of 3 nM.
Under `O=C(O)C1CCCC(NC(=O)C2CCCN(C(=O)CCC3CCNCC3)C2)C1` (centres undefined) stands greater than 50000 nM; under `O=C(NCCS(=O)(=O)O)C1CCCN(C(=O)CCC2CCNCC2)C1` (centres undefined), 200 nM; under `CC(CC(=O)O)NC(=O)C1CCCN(C(=O)CCC2CCNCC2)C1` (centres undefined), 3 nM.
`O=C(O)C1CN(C(=O)C2CCCN(C(=O)CCC3CCNCC3)C2)CCC1=O` (centres undefined) yielded an IC50 of 9 nM. Compared with the last molecule, the IC50 is about 3-fold higher.
As for `CC(C)(C)C#C[C@H](CC(=O)O)NC(=O)[C@@H]1CCCN(C(=O)CCC2CCNCC2)C1`, the IC50 worked out at 21 nM.
The value for `O=C(O)CCNC(=O)C1CCCCN(C(=O)CCC2CCNCC2)C1` (centres undefined) was 10 nM.
The value for `O=C(O)CCNC(=O)C1CCCN(C(=O)NCC2CCNCC2)C1` (centres undefined) was 20 nM; that for `O=C(O)C(O)CNC(=O)C1CCCN(C(=O)CCC2CCNCC2)C1` (centres undefined) was 5 nM.
`O=C(O)CCNC(=O)C1CCCN(C(=O)OCC2CCNCC2)C1` (centres undefined) had an IC50 of 20 nM.
`O=C(O)CCNC(=O)C1CCCN(C(=O)CCN2CCNCC2)C1` (centres undefined) gave a half-maximal inhibitory concentration (IC50) of 2 nM.
The value for `O=C(O)CCNC(=O)C1CCCN(S(=O)(=O)CCC2CCNCC2)C1` (centres undefined) was 20 nM.
The value for `O=C(O)C[C@H](NC(=O)[C@@H]1CCCN(C(=O)CCC2CCNCC2)C1)c1cccs1` was 0.1 nM; that for `CN(CCC(=O)O)C(=O)C1CCCN(C(=O)CCC2CCNCC2)C1` (centres undefined) was 200 nM.
Under `CC(CNC(=O)C1CCCN(C(=O)CCC2CCNCC2)C1)C(=O)O` (centres undefined) stands greater than 100 nM; under `CC(C)CC(CC(=O)O)NC(=O)C1CCCN(C(=O)CCC2CCNCC2)C1` (centres undefined), 2 nM.
With `O=C(O)CCNC(=O)[C@H]1CCCN(C(=O)CCC2CCNCC2)C1`, the IC50 was 4 nM.
Under `O=C(O)C[C@H](NC(=O)[C@@H]1CCCN(C(=O)CCC2CCNCC2)C1)c1cnc2ccccc2c1` stands 0.1 nM; under `O=C(O)CCNC(=O)[C@@H]1CCCN(C(=O)CCC2CCNCC2)C1`, 6 nM.
Molecule `O=C(NCCc1nnn[nH]1)C1CCCN(C(=O)CCC2CCNCC2)C1` (centres undefined) returned an IC50 of 600 nM.
The value for `O=C(O)CCNC(=O)C1CCN(C(=O)CCC2CCNCC2)C1` (centres undefined) was 7 nM.
